Data: article PMC9260180, “Blocking the Farnesyl Pocket of PDEδ Reduces Rheb-Dependent mTORC1 Activation and Survival of Tsc2-Null Cells” (Frontiers in Pharmacology, 2022)
“And” between values parts separate entries of the source, which are not always exact repeats. Identical values can stand only once.

Assays:
[1] = test system: phospho-4EBP1 (Thr37/46, Thr70) in Tsc2-null MEFs; experiment: 4EBP1 phosphorylation by Western blot in Tsc2-null MEFs; assay type: cell-based, mouse; conditions: 24 h; for change in electrophoretic pattern of total and phosphorylated 4EBP1: Deltasonamide 1 6 µM, rapamycin 20 nM; for effect on 4EBP1 phosphorylation (p4EBP1 levels, top band): 6 µM
Protocol: (§1) p53−/− Tsc2+/+ mouse embryonic fibroblast (MEF) and p53−/− Tsc2−/− MEF cells (hereinafter referred to as Tsc2-wt and Tsc2-null MEFs) were kindly provided by David J. Kwiatkowski (Harvard Medical School, Boston, MA, USA). MEF cells were cultured in Dulbecco’s modified Eagles’s medium (DMEM) (Corning, New York, USA), supplemented with 100 μg/ml streptomycin (HyClone), 100 U/ml penicillin (HyClone), 10% fetal bovine serum (Biological Industries, Cromwell, USA) and incubated at 37°C in 5% CO2.
(§2) Proteins were extracted in cold lysis buffer (50 mM Tris-HCl pH 7.4; 10% glycerol; 200 mM NaCl2; 2.5 mM MgCl2; 1% Triton X-100; 1/100 protease inhibitors; 1/100 phosphatase inhibitors) and the protein concentration was determined by Bradford assay. Total proteins were denaturized in loading buffer (50 mM Tris-HCl pH 6.8; 2% SDS; 0.1% bromophenol blue; 10% glycerol; 1% β-mercaptoethanol) by boiling for 5 min, separated by SDS-PAGE, and transferred to Polyvinylidene fluoride (PVDF) membrane (MilliporeSigma, Burlington, USA). For immunoblotting, all primary antibodies were diluted 1:1.000, except for anti-β-Actin antibody (1:10000 dilution). Secondary antibodies were diluted 1:10000. Immunolabeled proteins were detected using ECL Western Blotting Detection Reagent (GE Healthcare, Chicago, USA) and visualized in Syngene PXi6 Documentation System (Frederick, MD, USA).

Tsc2-null MEFs [2] = experiment: BrdU assay in Tsc2-null MEFs; assay type: cell-based, mouse; conditions: 24 h, Deltasonamide 1 6 µM, rapamycin 20 nM
Protocol: BrdU (5-Bromo-2-deoxyuridine) labeling, and detection kit II (Roche, Basel, Switzerland) were used for the analysis. Briefly, cells were labeled 45 min with 50 µM BrdU and fixed for 20 min at […] with a fixing solution (15 mM glycine pH 2.0, 70% ethanol). Then, cells were incubated with anti-BrdU antibody (1:20 dilution) and nucleases in incubation buffer (66 mM Tris, 0.66 mM MgCl2, 1 mM β-mercaptoethanol) for 30 min at 37°C in a wet chamber. For secondary antibody, Alexa 555 anti-mouse conjugated (1:500 dilution) was used. The nuclei were labeled with Hoechst 33342 diluted 1:250. Finally, the samples were mounted on a slide with DAKO mounting medium. At least 3 images were captured using Olympus CKX41 fluorescence microscope for each condition. BrdU positive cells were analyzed using ImageJ software.

Tsc2-null MEFs [3] = experiment: XTT viability assay in Tsc2-null MEFs; assay type: cell-based, mouse; conditions: after 24 h, Deltasonamide 1 6 µM, rapamycin 20 nM
Protocol: (§3) We used XTT based-Cell Proliferation Kit (Biological Industries, USA) according to the manufacturer’s instructions to assess cell viability and proliferation. Briefly, Tsc2-null or Tsc2-wt MEF cells were seeded in 96-well plates and grown in DMEM without phenol red (Biological Industries, Cromwell, USA) at 37°C in 5% CO2. […] After 4 h of incubation, viable cells were detected by measuring the absorbance at 450nm/630 nm using TECAN Infinite® 200 PRO microplate reader (Tecan Group Ltd. Männedorf, Switzerland). The results were expressed as a percentage of absorbance relative to the control group.

Tsc2-wt MEFs = experiment: XTT viability assay in Tsc2-wt MEFs; assay type: cell-based, mouse
Protocol: as §3

[4] = test system: mTORC1 signaling in Tsc2-wt MEFs; experiment: mTORC1 signaling by immunoblotting in Tsc2-wt MEFs; assay type: cell-based, mouse; conditions: 4 h and 24 h, Deltasonamide 1 6 µM, rapamycin 20 nM
Protocol: as §2
Supplementary Figure 4. […].
and 24 h (right panel). Lysates were characterized by immunoblotting of the indicated proteins. Results
are representative of three independent experiments.
(§4) (1 picture or pasted object on this page, not shown here)

Tsc2-null MEFs [5] = experiment: Live/Dead and CytoTox-Glo cell assay in Tsc2-null MEFs; conditions: Deltasonamide 1 6 µM, rapamycin 20 nM; for effect on cell numbers: vs DMSO
Caco-2 cells = experiment: Caco-2 permeability assay
Protocol: To measure cellular permeability, Caco-2 cells were seeded on a transwell membrane in a 24-well format and grown for 3 weeks to form a monolayer of differentiated cells.

[6] = test system: phospho-S6 ribosomal protein (Ser235/236) in Tsc2-null MEFs; experiment: S6 phosphorylation (pS6) by Western blot in Tsc2-null MEFs; assay type: cell-based, mouse; conditions: 0.5-6 µM, 24 h
Protocol: as §1
Proteins were extracted in cold lysis buffer (50 mM Tris-HCl pH 7.4; 10% glycerol; 200 mM NaCl2; 2.5 mM MgCl2; 1% Triton X-100; 1/100 protease inhibitors; 1/100 phosphatase inhibitors) and the protein concentration was determined by Bradford assay. […] Immunolabeled proteins were detected using ECL Western Blotting Detection Reagent (GE Healthcare, Chicago, USA) and visualized in Syngene PXi6 Documentation System (Frederick, MD, USA).
For GFP proteins, Tsc2-wt MEF cells were electroporated with 3 µg of pEGFP-C1-RhebWT (GFP-Rheb) or pEGFP-C1 (GFP only) using NEON™ Transfection System (Invitrogen). […] Images were analyzed by confocal fluorescence microscopy using the LSM780 NLO Confocal Spectral Microscope (Carl Zeiss, Jena, Germany).

[7] = test system: EGF-induced S6 phosphorylation in pancreatic cancer cell lines; design: method as in Papke et al., 2016; conditions: another pancreatic cancer cell line; ref Papke et al., 2016; cited from earlier work
[8] = test system: phospho-p70 S6 kinase (Thr389) in Tsc2-null MEFs; experiment: S6K phosphorylation (Thr389) by Western blot in Tsc2-null MEFs; conditions: 24 h
Description: Levels of phospho-p70 S6 kinase (Thr389) (pS6K) were detected by Western blot and measured using densitometric analysis.

Smad/Smurf = experiment: yeast two-hybrid LacZ quantitative measurement, Smad/Smurf control interaction; conditions: 7 and 24 h, titrated concentrations
Protocol: As a control, a yeast two-hybrid was performed using Smad (bait), Smurf (prey), and the empty vectors. To verify positive clones, diploid cells were grown on selective media either lacking tryptophan and leucine (DO-2) or lacking tryptophan, leucine, and histidine (DO-3). To detect lacZ gene expression, diploid cells co-transformed with bait and prey constructs were grown on DO-2 medium supplemented with X-gal substrate. […] To detect lacZ gene expression, diploid cells co-transformed with bait and prey constructs were grown on DO-2 medium supplemented with X-gal substrate. Co-transformed cells able to grow on DO-2 medium and form blue colonies in the presence of X-gal were considered positive bait-prey interaction.

[9] = test system: Rheb localization in Tsc2-wt MEF cells; experiment: GFP-Rheb cellular localization by confocal microscopy in Tsc2-wt MEFs; assay type: cell-based, mouse; conditions: Tsc2-wt MEF cells with GFP-Rheb, 6 µM, 24 h
Protocol: For GFP proteins, Tsc2-wt MEF cells were electroporated with 3 µg of pEGFP-C1-RhebWT (GFP-Rheb) or pEGFP-C1 (GFP only) using NEON™ Transfection System (Invitrogen). Briefly, 200.000 cells were electroporated with the 10 µl tips at 1100 V for 30 mseg (one pulse). […] Cells were fixed with 4% w/v paraformaldehyde (PFA) for 10 min and permeabilized with 0.1% Triton X-100 in Phosphate-Buffered Saline (PBS) for 30 min. Then, samples were blocked for 1 h with 3% BSA-PBS and incubated overnight with primary antibody (1:200 dilution) in a dark/wet chamber at 4°C. Next, fixed cells were incubated with secondary antibody (1:500 dilution) and Hoechst (1:250 dilution) for 1 h in the dark/wet chamber at room temperature. The coverslips were mounted on a slide with DAKO mounting medium (Agilent, Santa Clara, USA). Images were analyzed by confocal fluorescence microscopy using the LSM780 NLO Confocal Spectral Microscope (Carl Zeiss, Jena, Germany).
Supplementary Figure 5. Deltasonamide 1 affects the cellular localization of Rheb. Tsc2-wt MEF cells were transfected with pEGFP-C1-GFP-RhebWT (GFP -Rheb) or pEGFP-C1 (GFP only) and treated with 6µM Deltas onamide 1 or DMSO for 24 hours. GFP-Rheb and GFP levels were analyzed by immunofluorescence and confocal microscopy. Scale bar = 20 µm.
as §4

Row | Compound | change in electrophoretic pattern of total and phosphorylated 4EBP1 [1] | effect on BrdU incorporation (Tsc2-null MEFs [2]) | effect on cell viability (XTT) (Tsc2-null MEFs [3]) | effect on cell viability (XTT) (Tsc2-wt MEFs; 48 h, rapamycin 20 nM) | effect on mTORC1 activity/signaling [4] | effect on cell numbers (Tsc2-null MEFs [5]; 24 h) | Caco-2 (pH 6.5/7.4) Papp (A→B) (Caco-2 cells; Caco-2, pH 6.5) | Caco-2 (pH 6.5/7.4) Papp (B→A) (Caco-2 cells; Caco-2, pH 6.5) | effect on S6 phosphorylation (pS6) [6] | effect on 4EBP1 phosphorylation (p4EBP1 levels, top band) [1] | effect on EGF-induced S6 phosphorylation [7] | effect on S6K phosphorylation ([8]; 6 µM) | effect on the interaction between Smad and Smurf (Smad/Smurf) | Caco-2 (pH 6.5/7.4) Papp (A→B) (Caco-2 cells; 10 µM, 2 h, 37°C) | Caco-2 (pH 6.5/7.4) Papp (B→A) (Caco-2 cells; 10 µM, 2 h, 37°C) | effect on cell viability (XTT) (Tsc2-wt MEFs; 72 h, Deltasonamide 1 6 µM) | effect on intracellular Rheb distribution [9] | effect on dead cells (Tsc2-null MEFs [5]; 24 h) | effect on percentage of dead cells (Tsc2-null MEFs [5]; 48 h) | LogIC50 of pS6K levels (Figure 3) ([8]; 0.5–8 µM)
1 | CO[C@H]1C[C@@H]2CC[C@@H](C)[C@@](O)(O2)C(=O)C(=O)N2CCCC[C@H]2C(=O)O[C@H]([C@H](C)C[C@@H]2CC[C@@H](O)[C@H](OC)C2)CC(=O)[C@H](C)/C=C(\C)[C@@H](O)[C@@H](OC)C(=O)[C@H](C)C[C@H](C)/C=C/C=C/C=C/1C [rapamycin] | caused the appearance of lower molecular weight bands | significantly reduced | significantly diminished | significantly affected | significantly affected | significantly decreased |  |  |  |  |  |  |  |  |  |  |  |  |  | 
2 | Cc1ccc(-n2nc3c(=O)n(CCCC(=O)NCC(C)c4ccccc4)nc(C)c3c2C)cc1 (stereo not shown) [Deltazinone 1] |  |  |  |  |  |  | 41.1 10^−6 cm/s | 25.1 10^−6 cm/s | did not affect | ineffective | ineffective | ineffective | not affected |  |  |  |  |  |  | 
3 | CNc1nccc(CN(CC2CCNCC2)S(=O)(=O)c2ccc(S(=O)(=O)N(Cc3ccc(Cl)cc3)C3CCCC3)cc2)n1 [Deltasonamide 1] | caused the appearance of lower molecular weight bands | significantly reduced | significantly diminished |  | did not affect | significantly decreased |  |  | dose-dependently reduced | could not detect a significant effect |  |  | not affected | 1.6 10^−6 cm/s and 1.56 10^−6 cm/s | 13.67 10^−6 cm/s | reduced | disrupted | not associated with an increase in dead cells | significantly increased | -5.347
